Measured values published in the NIST ThermoML archive (doi:10.1016/j.jct.2017.03.026).

Details: 101.33 kPa, Crystal, Small (less than 1 g) adiabatic calorimetry

O.O.O.O.O.O=S(=O)([O-])[O-].[Cu+2] [copper(II) sulfate pentahydrate]
Details | molar entropy [J/K/mol]
5 K | 1.205
10 K | 1.688
15 K | 2.669
20 K | 4.429
25 K | 6.984
30 K | 10.25
35 K | 14.13
40 K | 18.55
45 K | 23.35
50 K | 28.39
55 K | 33.74
60 K | 39.25
65 K | 44.9
70 K | 50.64
75 K | 56.43
80 K | 62.26
85 K | 68.09
90 K | 73.92
95 K | 79.73
100 K | 85.52
110 K | 97.04
120 K | 108.5
130 K | 119.8
140 K | 131
150 K | 142.1
160 K | 153.1
170 K | 164
180 K | 174.7
190 K | 185.4
200 K | 196
210 K | 206.5
220 K | 216.9
230 K | 227.2
240 K | 237.5
250 K | 247.6
260 K | 257.7
270 K | 267.6
273.15 K | 270.7
280 K | 277.5
290 K | 287.3
298.15 K | 295.2
300 K | 297
310 K | 306.6
320 K | 316.1
